In the data set the test system is CCRIS mutagenicity, Ames/micronucleus/aberration tests. As to the kind of experiment: CCRIS mutagenicity studies.
The mark [1] stands for this setting: Test System: AMES SALMONELLA TYPHIMURIUM, Strain/Indicator: TA98, Metabolic Activation: NONE, Method: STANDARD PLATE.

The structures appear in SMILES notation. Calls of active or inactive are those of the source. No rule for the calls is given here.

In the case of `CCOC(=O)CC(SP(=S)(OC)OC)C(=O)OCC` (stereo not given), the mutagenic call reads like this: (End Point: IN VITRO CHROMOSOMAL ABERRATIONS, Test System: CHINESE HAMSTER OVARY CELLS, Metabolic Activation: NONE) “inactive; negative”; (End Point: IN VITRO CHROMOSOMAL ABERRATIONS, Test System: CHINESE HAMSTER OVARY CELLS, Metabolic Activation: RAT, LIVER, S-9, AROCLOR 1254) “active; positive; precipitation occurred at all doses”; (End Point: IN VITRO MICRONUCLEUS, Test System: HUMAN PERIPHERAL LYMPHOCYTES, Metabolic Activation: NONE, Method: DUAL COLOR PROBE) “active; positive”; (End Point: IN VIVO CHROMOSOMAL ABERRATIONS, Test System: BONE MARROW, Species: MOUSE, Strain/Sex: SWISS/MALE, Route: IP INJECTION) “active; positive (structural changes: chromosome gaps, abnormal metaphases)”; (End Point: IN VIVO CHROMOSOMAL ABERRATIONS, Test System: BONE MARROW, Species: MOUSE, Strain/Sex: SWISS/MALE, Route: ORAL (DIET)) “active; positive (structural changes: gaps, breaks, deletions, tetraploidy)”; (End Point: IN VIVO MICRONUCLEUS, Test System: BONE MARROW POLYCHROMATIC ERYTHROCYTES, Species: MOUSE, Strain/Sex: SWISS/MALE, FEMALE, Route: IP INJECTION) “active; positive; higher dose effective”. For the same compound, the mutagenic call is “active; positive” (End Point: IN VIVO MICRONUCLEUS, Test System: BONE MARROW POLYCHROMATIC ERYTHROCYTES, Species: MOUSE, Strain/Sex: SWISS/MALE, FEMALE, Route: ORAL); “active; positive. positive response at highest dose” (End Point: In vivo micronucleus, Test System: Peripheral blood polychromatic and normochromatic erythrocytes, Species: Rat, Strain/Sex: Wistar/Male, Route: Intraperitoneal); “inactive; negative. increases in ratio of polychromatic erythrocytes to normochromatic lym” (End Point: In vivo micronucleus, Test System: Peripheral blood polychromatic erythrocytes, Species: Rat, Strain/Sex: Wistar/Male, Route: Intraperitoneal); “inactive; negative” (Test System: AMES SALMONELLA TYPHIMURIUM, Strain/Indicator: TA97A, Metabolic Activation: NONE, Method: STANDARD PLATE); “inactive; negative” (Test System: AMES SALMONELLA TYPHIMURIUM, Strain/Indicator: TA97A, Metabolic Activation: RAT, CECAL CELL FREE EXTRACT, Method: STANDARD PLATE); “inactive; negative” (Test System: AMES SALMONELLA TYPHIMURIUM, Strain/Indicator: TA97A, Metabolic Activation: RAT, LIVER, S-9, AROCLOR 1254, Method: STANDARD PLATE). For the same compound, the mutagenic call by setting is: under setting [1], “inactive; negative”; (Test System: AMES SALMONELLA TYPHIMURIUM, Strain/Indicator: TA98, Metabolic Activation: RAT, CECAL CELL FREE EXTRACT, Method: STANDARD PLATE) “inactive; negative”; (Test System: AMES SALMONELLA TYPHIMURIUM, Strain/Indicator: TA98, Metabolic Activation: RAT, LIVER, S-9, AROCLOR 1254, Method: STANDARD PLATE) “inactive; negative”; (Test System: AMES SALMONELLA TYPHIMURIUM, Strain/Indicator: TA98, Metabolic Activation: S-9, NADPH GENERATING SYSTEM, Method: STANDARD PLATE) “inactive; negative”; (Test System: AMES SALMONELLA TYPHIMURIUM, Strain/Indicator: TA100, Metabolic Activation: NONE, Method: STANDARD PLATE) “inactive; negative”; (Test System: AMES SALMONELLA TYPHIMURIUM, Strain/Indicator: TA100, Metabolic Activation: RAT, CECAL CELL FREE EXTRACT, Method: STANDARD PLATE) “inactive; negative”. Also, the mutagenic call is, setting by setting: (Test System: AMES SALMONELLA TYPHIMURIUM, Strain/Indicator: TA100, Metabolic Activation: RAT, LIVER, S-9, AROCLOR 1254, Method: STANDARD PLATE) “inactive; negative”; (Test System: AMES SALMONELLA TYPHIMURIUM, Strain/Indicator: TA102, Metabolic Activation: NONE, Method: STANDARD PLATE) “inactive; negative”; (Test System: AMES SALMONELLA TYPHIMURIUM, Strain/Indicator: TA102, Metabolic Activation: S-9, NADPH GENERATING SYSTEM, Method: STANDARD PLATE) “inactive; negative”; (Test System: AMES SALMONELLA TYPHIMURIUM, Strain/Indicator: TA1535, Metabolic Activation: NONE, Method: STANDARD PLATE) “inactive; negative”; (Test System: AMES SALMONELLA TYPHIMURIUM, Strain/Indicator: TA1535, Metabolic Activation: S-9, NADPH GENERATING SYSTEM, Method: STANDARD PLATE) “inactive; negative”; (Test System: AMES SALMONELLA TYPHIMURIUM, Strain/Indicator: TA1537, Metabolic Activation: NONE, Method: STANDARD PLATE) “inactive; negative”. Also, for the setting “Test System: AMES SALMONELLA TYPHIMURIUM, Strain/Indicator: TA1537, Metabolic Activation: S-9, NADPH GENERATING SYSTEM, Method: STANDARD PLATE”, the mutagenic call was “inactive; negative”.

As for `O=[N+]([O-])c1ccc2cn[nH]c2c1`, the mutagenic call under setting [1] was “active; positive”.

Consider `CC(C)=CCC[C@@](C)(O)[C@H]1CCC=CC1=O`, for which the mutagenic call reads like this: (Test System: AMES SALMONELLA TYPHIMURIUM, Strain/Indicator: TM677, Metabolic Activation: NONE, Method: STANDARD PLATE) “active; positive”; (Test System: AMES SALMONELLA TYPHIMURIUM, Strain/Indicator: TM677, Metabolic Activation: RAT, LIVER, S-9, AROCLOR 1254, Method: STANDARD PLATE) “active; positive”.

With `COc1ccc2c(c1)c(CC(=O)OC(C)c1ccccc1)c(C)n2C(=O)c1ccc(Cl)cc1` (stereo not given), the mutagenic call (End Point: IN VITRO MICRONUCLEUS, Test System: CHL/IU CELLS, Metabolic Activation: NONE) is “active; positive”.

With `N[C@@H](CSC(F)(F)C(F)(F)C(F)F)C(=O)O`, for the setting “Test System: AMES SALMONELLA TYPHIMURIUM, Strain/Indicator: TA100, Metabolic Activation: RAT, KIDNEY, S-9, AROCLOR 1254, Method: STANDARD PLATE”, the mutagenic call is “inactive; negative”.

The values are drawn from PubChem BioAssay AID1259407 (Chemical Carcinogenesis Research Information System (CCRIS), 2018).
